# Molecular target: T1, recombinant human Syk (GST-hSyk fusion protein) (Homo sapiens, UniProt P43405)
# T1 construct: purchased Carna Biosciences 08-176
# Experiment: Homogeneous Time-Resolved Fluorescence (HTRF) assay for the recombinant human Syk enzyme
# Format: biochemical
# Settings: 10-dose titration, 25 μM ATP; read-out: rhSYK IC50
# How it was run: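 GST-hSyk (5 pM) preincubated 10 min with compound (0.1% DMSO) in 15 mM Tris-HCl pH 7.5, 2 mM DTT; reaction started with 250 nM biotinylated peptide, 5 mM Mg, 25 μM ATP, 45 min, room temperature. EDTA quench, Eu-anti-phosphotyrosine/SA-APC HTRF read after 30 min; IC50 from 10-dose titration (10 μM–0.508 nM), four-parameter fit.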
row,IC50 [nM],Molecule
1,9,"Cc1cc(Nc2nccc(C(F)(F)F)n2)cc(-c2cnn(C(C)(C)CC#N)c2)c1 [Example 9.1, 3-methyl-3-[4-(3-methyl-5-{[4-(trifluoromethyl)pyrimidin-2-yl]amino}phenyl)-1H-pyrazol-1-yl]butanenitrile]"

# Same assay, conditions: IC50 class; 10-dose titration, 25 μM ATP; read-out: rhSYK Activity
row,Molecule,IC50 [nM]
1,"Cc1cc(Nc2cc(C(F)(F)F)ccn2)nc(-c2cc(C(F)(F)F)nn2C)n1 [Example 1.46, 6-methyl-2-[1-methyl-3-(trifluoromethyl)-1H-pyrazol-5-yl]-N-[4-(trifluoromethyl)pyridin-2-yl]pyrimidin-4-amine]",1000 to 10000
2,"CCOC(=O)CCn1cc(-c2cccc(Nc3nccc(C(F)(F)F)n3)c2)cn1 [Example 2.2, ethyl 3-[4-(3-{[4-(trifluoromethyl)-pyrimidin-2-yl]-amino}phenyl)-1H-pyrazol-1-yl]-propanoate]",100 to 1000
3,"Cc1cc(Nc2ncc(F)c(C)n2)cc(-c2cnn(CCC(N)=O)c2)c1 [Example 2.6, 3-(4-{3-[(5-fluoro-4-methylpyrimidin-2-yl)amino]-5-methylphenyl}-1H-pyrazol-1-yl)propanamide]",≤ 100
4,"O=C(O)C1CCC(n2cc(-c3cc(Cl)cc(Nc4cc(C(F)(F)F)ccn4)n3)cn2)CC1 (stereo not shown) [Example 1.55, 4-[4-(4-chloro-6-{[4-(trifluoromethyl)pyridin-2-yl]amino}pyridin-2-yl)-1H-pyrazol-1-yl]cyclohexanecarboxylic acid]",≤ 100
5,"Cc1cc(Nc2nccc(C(F)(F)F)n2)cc(-c2cnn(C(C)C(=O)O)c2)c1 (stereo not shown) [Example 3.35, 2-[4-(3-methyl-5-{[4-(trifluoromethyl)pyrimidin-2-yl]amino}-phenyl)-1H-pyrazol-1-yl]propanoic acid]",≤ 100
6,4-{[4-(4-methyl-6-{[4-(trifluoromethyl)-pyridin-2-yl]amino}-pyridin-2-yl)-1H-pyrazol-1-yl]methyl}-pyrrolidin-2-one [Example 1.39],≤ 100
7,"Cc1cc(Nc2nccc(C(F)(F)F)n2)cc(-c2cnn(CC3NC(=O)OC3C)c2)c1 (stereo not shown) [Example 3.129, 5-methyl-4-{[4-(3-methyl-5-{[4-(trifluoromethyl)pyrimidin-2-yl]amino}phenyl)-1H-pyrazol-1-yl]methyl}-1,3-oxazolidin-2-one]",≤ 100
8,"Cc1cc(Nc2ncccn2)cc(-c2cnn(Cc3ccc(C(N)=O)cc3)c2)c1 [Example 2.57, 4-({4-[3-methyl-5-(pyrimidin-2-ylamino)phenyl]-1H-pyrazol-1-yl}methyl)benzamide]",≤ 100
9,"Cc1cc(Nc2nccc(C(F)(F)F)n2)cc(-c2cnn(C(C)(C)CC#N)c2)c1 [Example 9.1, 3-methyl-3-[4-(3-methyl-5-{[4-(trifluoromethyl)pyrimidin-2-yl]amino}phenyl)-1H-pyrazol-1-yl]butanenitrile]",≤ 100
10,"COC(=O)CCCn1cc(-c2cc(C)cc(Nc3nccc(C(F)(F)F)n3)c2)cn1 [Example 3.49, methyl 4-[4-(3-methyl-5-{[4-(trifluoromethyl)-pyrimidin-2-yl]amino}-phenyl)-1H-pyrazol-1-yl]butanoate]",≤ 100
11,"Cc1cc(Nc2nccc(C(F)(F)F)n2)cc(-c2cc(C(F)(F)F)nn2C)c1 [Example 1.10, N-{3-methyl-5-[1-methyl-3-(trifluoromethyl)-1H-pyrazol-5-yl]phenyl}-4-(trifluoromethyl)pyrimidin-2-amine]",1000 to 10000
12,"Cc1cc(Nc2nccc(C(F)F)n2)cc(-c2cnn(CC3CC(=O)NC34CC4)c2)c1 (stereo not shown) [Example 3.89, 7-{[4-(3-{[4-(difluoromethyl)pyrimidin-2-yl]amino}-5-methylphenyl)-1H-pyrazol-1-yl]methyl}-4-azaspiro[2.4]heptan-5-one]",≤ 100
13,"Cc1cc(Nc2nccc(C(F)(F)F)n2)cc(-c2cnn(C[C@@H]3COC(=O)N3)c2)c1 [Example 3.97, (4R)-4-{[4-(3-methyl-5-{[4-(trifluoromethyl)pyrimidin-2-yl]amino}phenyl)-1H-pyrazol-1-yl]methyl}-1,3-oxazolidin-2-one]",≤ 100
14,"O=C1NCC(Cn2cc(-c3cccc(Nc4cc(C(F)F)ccn4)n3)cn2)O1 (stereo not shown) [Example 3.84, 5-{[4-(6-{[4-(difluoromethyl)pyridin-2-yl]amino}pyridin-2-yl)-1H-pyrazol-1-yl]methyl}-1,3-oxazolidin-2-one]",≤ 100
15,"COC(=O)C(C)(O)Cn1cc(-c2cc(C)cc(Nc3nccc(C(F)(F)F)n3)c2)cn1 (racemic) [Example 5.4, methyl 2-hydroxy-2-methyl-3-[4-(3-methyl-5-{[4-(trifluoro-methyl)pyrimidin-2-yl]amino}phenyl)-1H-pyrazol-1-yl]propanoate]",≤ 100
16,"Cc1cc(Nc2nccc(C(F)F)n2)cc(-c2cnn(C[C@]3(O)C[C@H](C#N)C3)c2)c1 [Example 5.40, trans-3-{[4-(3-{[4-(difluoromethyl)pyrimidin-2-yl]amino}-5-methylphenyl)-1H-pyrazol-1-yl]methyl}-3-hydroxycyclobutane-carbonitrile]",≤ 100
17,"Cc1cc(Nc2nccc(C(F)(F)F)n2)cc(-c2cnn(C3CCC(C(=O)O)CC3O)c2)c1 (stereo not shown) [Example 5.38, 3-hydroxy-4-[4-(3-methyl-5-{[4-(trifluoromethyl)pyrimidin-2-yl]amino}phenyl)-1H-pyrazol-1-yl]cyclohexanecarboxylic acid]",≤ 100
18,"Cc1cc(Nc2nccc(C)n2)cc(-c2cnn(CC3CNC(=O)O3)c2)c1 (stereo not shown) [Example 2.18, 5-[(4-{3-methyl-5-[(4-methylpyrimidin-2-yl)amino]phenyl}-1H-pyrazol-1-yl)methyl]-1,3-oxazolidin-2-one]",≤ 100
19,"Cc1cc(Nc2cc(C(F)(F)F)ccn2)nc(-c2cnn(CCC(C)C)c2)c1 [Example 1.14, 4-methyl-6-[1-(3-methylbutyl)-1H-pyrazol-4-yl]-N-[4-(trifluoromethyl)pyridin-2-yl]pyridin-2-amine]",≤ 100
20,"CC(=O)N1CCN(C(=O)Cn2cc(-c3cc(C)cc(Nc4nccc(C(F)(F)F)n4)c3)cn2)CC1 [Example 3.7, N-(3-{1-[2-(4-acetylpiperazin-1-yl)-2-oxoethyl]-1H-pyrazol-4-yl}-5-methylphenyl)-4-(trifluoromethyl)-pyrimidin-2-amine]",≤ 100
21,"Cc1cc(Nc2nccc(C(C)C)n2)cc(-c2cnn(CC3CNC(=O)O3)c2)c1 (stereo not shown) [Example 2.24, 5-{[4-(3-methyl-5-{[4-(1-methylethyl)pyrimidin-2-yl]amino}phenyl)-1H-pyrazol-1-yl]methyl}-1,3-oxazolidin-2-one]",≤ 100
22,"CCOC(=O)C(O)Cn1cc(-c2cc(C)cc(Nc3nccc(C(F)F)n3)c2)cn1 (stereo not shown) [Example 5.20, ethyl 3-[4-(3-{[4-(difluoromethyl)pyrimidin-2-yl]amino}-5-methylphenyl)-1H-pyrazol-1-yl]-2-hydroxypropanoate]",≤ 100
23,"Cc1cc(Nc2nccc(C(C)(F)F)n2)cc(-c2cnn(CC3CNC(=O)O3)c2)c1 (stereo not shown) [Example 3.126, 5-{[4-(3-{[4-(1,1-difluoroethyl)pyrimidin-2-yl]amino}-5-methylphenyl)-1H-pyrazol-1-yl]methyl}-1,3-oxazolidin-2-one]",≤ 100

# More lines, now with the values ahead:
row,IC50 [nM],Molecule
1,≤ 100,"Cc1cc(Nc2ncc(F)c(C(F)F)n2)cc(-c2cnn(CC(C)(O)CO)c2)c1 (single isomer, unassigned) [Example 25.9, 3-[4-(3-{[4-(difluoromethyl)-5-fluoropyrimidin-2-yl]amino}-5-methylphenyl)-1H-pyrazol-1-yl]-2-methylpropane-1,2-diol]"
2,≤ 100,"Cc1cc(Nc2nccc(C(F)(F)F)n2)cc(-n2cc(C(C)(O)c3ccc(C(=O)O)cc3)cn2)c1 (single isomer, unassigned) [Example 19.8, 4-{1-hydroxy-1-[1-(3-methyl-5-{[4-(trifluoromethyl)pyrimidin-2-yl]amino}phenyl)-1H-pyrazol-4-yl]ethyl}benzoic acid]"
3,≤ 100,"Cc1cc(Nc2nccc(C(F)(F)F)n2)cc(-c2cnn(CC3OC(=O)NC3C(C)C)c2)c1 (single isomer, unassigned) [Example 23.6, 4-(1-methylethyl)-5-{[4-(3-methyl-5-{[4-(trifluoromethyl)pyrimidin-2-yl]amino}phenyl)-1H-pyrazol-1-yl]methyl}-1,3-oxazolidin-2-one]"
4,100 to 1000,Cc1cc(Nc2nccc(C(F)(F)F)n2)cc(-n2ccc(Cl)n2)c1 [19.9]
5,≤ 100,"Cc1cc(Nc2nccc(C(F)(F)F)n2)cc(-c2cnn(CC(C)(O)CO)c2)c1 (single isomer, unassigned) [Example 21.2, 2-Methyl-3-(4-(3-methyl-5-((4-(trifluoromethyl)pyrimidin-2-yl)amino)phenyl)-1H-pyrazol-1-yl)propane-1,2-diol]"
6,≤ 100,"Cc1cc(Nc2nccc(C(F)F)n2)cc(-c2cnn(CC(C)(O)CC#N)c2)c1 (stereo not shown) [Example 20.8, 4-[4-(3-{[4-(difluoromethyl)pyrimidin-2-yl]amino}-5-methylphenyl)-1H-pyrazol-1-yl]-3-hydroxy-3-methylbutanenitrile]"
7,≤ 100,"Cc1cc(Nc2nccc(C)n2)cc(-c2cnn(C[C@H](O)C(=O)O)c2)c1 [Example 11.3, (2S)-2-hydroxy-3-(4-{3-methyl-5-[(4-methylpyrimidin-2-yl)amino]phenyl}-1H-pyrazol-1-yl)-propanoic acid]"
8,≤ 100,"Cc1cc(Nc2nccc(C(F)F)n2)cc(-c2cnn(CC3OC(=O)NC3C)c2)c1 (single isomer, unassigned) [Example 23.10, 5-{[4-(3-{[4-(difluoromethyl)pyrimidin-2-yl]amino}-5-methylphenyl)-1H-pyrazol-1-yl]methyl}-4-methyl-1,3-oxazolidin-2-one]"
9,≤ 100,"Cc1cc(Nc2nccc(C)n2)cc(-c2cnn(CC3(O)CCC3)c2)c1 [Example 29.5, 1-[(4-{3-methyl-5-[(4-methylpyrimidin-2-yl)amino]phenyl}-1H-pyrazol-1-yl)methyl}cyclobutanol]"
10,≤ 100,"Cc1cc(Nc2nccc(C3CC3)n2)cc(-c2cnn(C[C@H](O)C(=O)O)c2)c1 [Example 11.5, (2S)-3-(4-{3-[(4-cyclopropylpyrimidin-2-yl)amino]-5-methyl-phenyl}-1H-pyrazol-1-yl)-2-hydroxy-propanoic acid]"

# — patent US9242984B2, “Pyrazolyl derivatives as Syk inhibitors” (Merck Sharp & Dohme Corp., priority 2012, dated 2016)
